Values quoted from earlier work in PubChem BioAssay AID1259409 (Chemical Carcinogenesis Research Information System (CCRIS), 2018).

Test system: rodent chemically induced tumor inhibition, incidence and multiplicity
Test: CCRIS tumor inhibitor studies

Compound: O=C1C=C(/C=C/c2ccccc2)C(O)O1 (centres undefined)
- tumour outcome (control, treated, inhibition, significance) (Carcinogen: AZOXYMETHANE, 25843-45-2, Dose [Inhibitor]: 0, 0.02% IN DIET FOR FIRST 3 WK OF STUDY (STUDY DURATION: 1 YR), Route [Inhibitor]: ORAL, Species: RAT, Strain/Sex: F344/MALE, Target Tissue: Type of Lesion: INTESTINE: ADENOMA OR ADENOCARCINOMA, Dose [Carcinogen]: 15 MG/KG BW ONCE IN WK 1 AND ONCE IN WK 3 OF STUDY, Promoter: NONE USED): 20/27 (74%), 7/18 (39%), 47%, p<0.02
- tumour outcome (control, treated, inhibition, significance) (Carcinogen: AZOXYMETHANE, 25843-45-2, Dose [Inhibitor]: 0, 100 PPM IN DIET FOR DURATION OF STUDY BEGINNING 1 WK POST CARCINOGEN TREATMENT (STUDY DURATION: 32 WK), Route [Inhibitor]: ORAL, Species: RAT, Strain/Sex: F344/MALE, Target Tissue: Type of Lesion: LARGE INTESTINE: ADENOCARCINOMA, Dose [Carcinogen]: 15 MG/KG BW 1/WK FOR 3 WK, Promoter: NONE USED): 10/30 (33%), 5/28 (18%), 45%, not significant
- tumour outcome (control, treated, inhibition, significance) (Carcinogen: AZOXYMETHANE, 25843-45-2, Dose [Inhibitor]: 0, 100 PPM IN DIET FOR DURATION OF STUDY BEGINNING 1 WK POST CARCINOGEN TREATMENT (STUDY DURATION: 32 WK), Route [Inhibitor]: ORAL, Species: RAT, Strain/Sex: F344/MALE, Target Tissue: Type of Lesion: LARGE INTESTINE: ADENOMA, Dose [Carcinogen]: 15 MG/KG BW 1/WK FOR 3 WK, Promoter: NONE USED): 1/30 (3%), 2/28 (7%), -133%, not significant
- tumour outcome (control, treated, inhibition, significance) (Carcinogen: AZOXYMETHANE, 25843-45-2, Dose [Inhibitor]: 0, 100 PPM IN DIET FOR DURATION OF STUDY BEGINNING 1 WK POST CARCINOGEN TREATMENT (STUDY DURATION: 32 WK), Route [Inhibitor]: ORAL, Species: RAT, Strain/Sex: F344/MALE, Target Tissue: Type of Lesion: SMALL INTESTINE: ADENOCARCINOMA, Dose [Carcinogen]: 15 MG/KG BW 1/WK FOR 3 WK, Promoter: NONE USED): 12/30 (40%), 7/28 (25%), 38%, not significant
- tumour outcome (control, treated, inhibition, significance) (Carcinogen: AZOXYMETHANE, 25843-45-2, Dose [Inhibitor]: 0, 100 PPM IN DIET FOR DURATION OF STUDY BEGINNING 1 WK POST CARCINOGEN TREATMENT (STUDY DURATION: 32 WK), Route [Inhibitor]: ORAL, Species: RAT, Strain/Sex: F344/MALE, Target Tissue: Type of Lesion: SMALL INTESTINE: ADENOMA, Dose [Carcinogen]: 15 MG/KG BW 1/WK FOR 3 WK, Promoter: NONE USED): 1/30 (3%), 1/28 (4%), -33%, not significant
- tumour outcome (control, treated, inhibition, significance) (Carcinogen: AZOXYMETHANE, 25843-45-2, Dose [Inhibitor]: 0, 200 PPM IN DIET FOR DURATION OF STUDY BEGINNING 1 WK POST CARCINOGEN TREATMENT (STUDY DURATION: 32 WK), Route [Inhibitor]: ORAL, Species: RAT, Strain/Sex: F344/MALE, Target Tissue: Type of Lesion: LARGE INTESTINE: ADENOCARCINOMA, Dose [Carcinogen]: 15 MG/KG BW 1/WK FOR 3 WK, Promoter: NONE USED): 10/30 (33%), 3/28 (11%), 67%, p<0.05
- tumour outcome (control, treated, inhibition, significance) (Carcinogen: AZOXYMETHANE, 25843-45-2, Dose [Inhibitor]: 0, 200 PPM IN DIET FOR DURATION OF STUDY BEGINNING 1 WK POST CARCINOGEN TREATMENT (STUDY DURATION: 32 WK), Route [Inhibitor]: ORAL, Species: RAT, Strain/Sex: F344/MALE, Target Tissue: Type of Lesion: LARGE INTESTINE: ADENOMA, Dose [Carcinogen]: 15 MG/KG BW 1/WK FOR 3 WK, Promoter: NONE USED): 1/30 (3%), 2/28 (7%), -133%, not significant
- tumour outcome (control, treated, inhibition, significance) (Carcinogen: AZOXYMETHANE, 25843-45-2, Dose [Inhibitor]: 0, 200 PPM IN DIET FOR DURATION OF STUDY BEGINNING 1 WK POST CARCINOGEN TREATMENT (STUDY DURATION: 32 WK), Route [Inhibitor]: ORAL, Species: RAT, Strain/Sex: F344/MALE, Target Tissue: Type of Lesion: SMALL INTESTINE: ADENOCARCINOMA, Dose [Carcinogen]: 15 MG/KG BW 1/WK FOR 3 WK, Promoter: NONE USED): 12/30 (40%), 2/28 (7%), 83%, p<0.005
- tumour outcome (control, treated, inhibition, significance) (Carcinogen: AZOXYMETHANE, 25843-45-2, Dose [Inhibitor]: 0, 200 PPM IN DIET FOR DURATION OF STUDY BEGINNING 1 WK POST CARCINOGEN TREATMENT (STUDY DURATION: 32 WK), Route [Inhibitor]: ORAL, Species: RAT, Strain/Sex: F344/MALE, Target Tissue: Type of Lesion: SMALL INTESTINE: ADENOMA, Dose [Carcinogen]: 15 MG/KG BW 1/WK FOR 3 WK, Promoter: NONE USED): 1/30 (3%), 0/28 (0%), 100%, not significant

Compound: C=C(C)C1CC=C(C)C(O)C1 (centres undefined)
- tumour outcome (control, treated, inhibition, significance) (Carcinogen: 7,12-DIMETHYLBENZ[A]ANTHRACENE, 57-97-6, Dose [Inhibitor]: 0, 1% IN DIET FOR 3 WK BEGINNING 2 WK PRIOR TO CARCINOGEN DOSE (STUDY DURATION: 20 WK), Route [Inhibitor]: ORAL, Species: RAT, Strain/Sex: WISTAR/FEMALE, Target Tissue: Type of Lesion: MAMMARY GLAND: CARCINOMA, Dose [Carcinogen]: 50 MG/KG IN SESAME OIL ONCE, Promoter: NONE USED): 98%, 92%, 6%, not significant

Compound: O=C(O)c1cc(O)c(O)c(O)c1
- tumour outcome (control, treated, inhibition, significance) (Carcinogen: 7,12-DIMETHYLBENZ[A]ANTHRACENE, 57-97-6, Dose [Inhibitor]: 0, 12 MG 2/WK FOR 30 WK APPLIED 20 MIN PRIOR TO EACH PROMOTER DOSE (STUDY DURATION: 32 WK), Route [Inhibitor]: DERMAL, Species: MOUSE, Strain/Sex: SENCAR/FEMALE, Target Tissue: Type of Lesion: SKIN: PAPILLOMA, Dose [Carcinogen]: 25 NMOL ONCE, Promoter: M-CHLOROPEROXYBENZOIC ACID, 937-14-4): 39%, 3%, 92%, not calculated
- tumour outcome (control, treated, inhibition, significance) (Carcinogen: 7,12-DIMETHYLBENZ[A]ANTHRACENE, 57-97-6, Dose [Inhibitor]: 0, 20 UMOL IN 0.4 ML ACETONE 20 MIN PRIOR TO EACH PROMOTER DOSE (STUDY DURATION: 47 WK), Route [Inhibitor]: DERMAL, Species: MOUSE, Strain/Sex: CF-1/FEMALE, Target Tissue: Type of Lesion: SKIN: CARCINOMA, Dose [Carcinogen]: 100 NMOL IN 0.2 ML ACETONE ONCE): 67%, 28%, 58%, p<0.005
- tumour outcome (control, treated, inhibition, significance) (Carcinogen: 7,12-DIMETHYLBENZ[A]ANTHRACENE, 57-97-6, Dose [Inhibitor]: 0, 20 UMOL IN 0.4 ML ACETONE 20 MIN PRIOR TO EACH PROMOTER DOSE (STUDY DURATION: 47 WK), Route [Inhibitor]: DERMAL, Species: MOUSE, Strain/Sex: CF-1/FEMALE, Target Tissue: Type of Lesion: SKIN: PAPILLOMA, Dose [Carcinogen]: 100 NMOL IN 0.2 ML ACETONE ONCE): 94%, 80%, 15%, not calculated
- tumour outcome (control, treated, inhibition, significance) (Carcinogen: BENZO[A]PYRENE, 50-32-8, Dose [Inhibitor]: 1% AQUEOUS SOLUTION 3/WK FOR A TOTAL OF 80 APPLICATIONS BEGINNING POST CARCINOGEN DOSE (STUDY DURATION: 567-580 D), Route [Inhibitor]: DERMAL, Species: MOUSE, Strain/Sex: CD-1/MALE, FEMALE, Target Tissue: Type of Lesion: SKIN: TUMOR, Dose [Carcinogen]: 0.53-0.6 MG ONCE, Promoter: NONE USED): 15/50 (30%), 15/50 (30%), 0%, not significant

Compound: CC/C=C\C/C=C\C/C=C\C/C=C\C/C=C\CCCC(=O)O
- tumour outcome (control, treated, inhibition, significance) (Carcinogen: 7,12-DIMETHYLBENZ[A]ANTHRACENE, 57-97-6, Dose [Inhibitor]: 0, 0.5 ML 2/WK FOR 19 WK BEGINNING 1 WK POST CARCINOGEN DOSE ADMINISTERED TO RATS FED HIGH-FAT (20% CORN OIL) DIETS (STU, Route [Inhibitor]: GAVAGE, Species: RAT, Strain/Sex: SPRAGUE-DAWLEY/FEMALE, Target Tissue: Type of Lesion: MAMMARY GLAND: ADENOCARCINOMA, Dose [Carcinogen]: 5 MG ONCE AT 50 D OF AGE, Promoter: NONE USED): 24/30 (80%), 10/24 (42%), 48%, p<0.05
- tumour outcome (control, treated, inhibition, significance) (Carcinogen: AZOXYMETHANE, 25843-45-2, Dose [Inhibitor]: 4.7% (VOL/VOL) IN 5% FAT DIET CONTAINING 0.3% LINOLEIC ACID FOR DURATION OF STUDY (STUDY DURATION: 26 WK), Route [Inhibitor]: ORAL, Species: RAT, Strain/Sex: DONRYU/MALE, Target Tissue: Type of Lesion: COLON: ADENOCARCINOMA, Dose [Carcinogen]: 7.4 MG/KG BW IN 0.9% SALINE SOLUTION 1/WK FOR FIRST 11 WK, Promoter: NONE USED): 20/29 (69%), 10/30 (33%), 52%, p<0.01

Compound: Cc1c(C)c(N)c(C)c(C)c1N
- outcome (Carcinogen: 7,12-DIMETHYLBENZ[A]ANTHRACENE, 57-97-6, Dose [Inhibitor]: 0.1% IN POWDERED DIET BEGINNING 1 WK POST CARCINOGEN DOSE FOR 51 WK (STUDY DURATION: 52 WK), Route [Inhibitor]: ORAL, Species: RAT, Strain/Sex: SPRAGUE-DAWLEY/FEMALE, Target Tissue: Type of Lesion: EAR DUCT: BENIGN TUMOR, Dose [Carcinogen]: 2.5 MG/100 G BW IN 0.5 ML SESAME OIL ONCE, Promoter: NONE USED): 7/19 (37%), 5/17 (29%), 20, not calculated
- tumour outcome (control, treated, inhibition, significance) (Carcinogen: 7,12-DIMETHYLBENZ[A]ANTHRACENE, 57-97-6, Dose [Inhibitor]: 0.1% IN POWDERED DIET BEGINNING 1 WK POST CARCINOGEN DOSE FOR 51 WK (STUDY DURATION: 52 WK), Route [Inhibitor]: ORAL, Species: RAT, Strain/Sex: SPRAGUE-DAWLEY/FEMALE, Target Tissue: Type of Lesion: MAMMARY GLAND: CARCINOMA, Dose [Carcinogen]: 2.5 MG/100 G BW IN 0.5 ML SESAME OIL ONCE, Promoter: NONE USED): 6/19 (32%), 6/17 (35%), -12%, not calculated
- tumour outcome (control, treated, inhibition, significance) (Carcinogen: 7,12-DIMETHYLBENZ[A]ANTHRACENE, 57-97-6, Dose [Inhibitor]: 0.1% IN POWDERED DIET BEGINNING 1 WK POST CARCINOGEN DOSE FOR 51 WK (STUDY DURATION: 52 WK), Route [Inhibitor]: ORAL, Species: RAT, Strain/Sex: SPRAGUE-DAWLEY/FEMALE, Target Tissue: Type of Lesion: MAMMARY GLAND: FIBROADENOMA, Dose [Carcinogen]: 2.5 MG/100 G BW IN 0.5 ML SESAME OIL ONCE, Promoter: NONE USED): 15/19 (79%), 4/17 (24%), 71%, p<0.01
